In patent US9102686B2, “5,6,7,8,9,10-hexahydro-6,10-epimino[1,2,4]triazolo[4,3-a]azocines as P2X7 modulators” (Janssen Pharmaceutica NV, priority 2013, dated 2015):

Columns and labels:
human P2X7 [1] = biological target: T1, human P2X7 (Homo sapiens (Human), UniProt Q99572); assay: Ca2+ flux (FLIPR) in 1321N1 cells expressing recombinant human P2X7 channel; assay type: cell-based; settings: human P2X7, 250 μM BzATP
Method: (§1) P2X7 Antagonism in Recombinant hP2X7 Cells: (a) Ca^2+ Flux (b) Radioligand Binding
(§2) (A) Ca^2+flux: 1321N1 cells expressing the recombinant human, rat or mouse P2X7 channel was cultured in HyQ DME/(HyClone/Dulbecco's Modified Eagle Medium) high glucose supplemented with 10% Fetal Bovine Serum (FBS) and appropriate selection marker. Cells were seeded at a density of 25000 cells/well (96-well clear bottom black walled plates) in 100 μl volume/well. On the day of the experiment, cell plates were washed with assay buffer, containing (in mM): 130 NaCl, 2 KCl, 1 CaCl2, 1 MgCl2, 10 HEPES, 5 glucose; pH 7.40 and 300 mOs. After the wash, cells were loaded with the Calcium-4 dye (Molecular Device) and incubated in the dark for 60 minutes. Test compounds were prepared at 250× the test concentration in neat DMSO. Intermediate 96-well compound plates were prepared by transferring 1.2 μL of the compound into 300 μL of assay buffer. A further 3× dilution occurred when transferring 50 μL/well of the compound plate to 100 μL/well in the cell plate. Cells were incubated with test compounds and dye for 30 minutes. […] The fluorescence change was measured 180 seconds after adding the agonist.

human P2X7 [2] = biological target: T1, human P2X7; assay: Radioligand binding, human P2X7-1321N1 cell membranes, tritiated A-804598; settings: human P2X7-1321N1 membranes, tracer tritiated A-804598, 1 hour 4° C.
Method: as §1
(§3) (B) Radioligand binding: human or rat P2X7-1321N1 cells were collected and frozen @−80° C. On the day of the experiment, cell membrane preparations were made according to standard published methods. […] The compound can be prepared as described in the literature. […] The assay was terminated by filtration (GF/B filters pre-soaked with 0.3% PEI) and washed with washing buffer (Tris-HCl 50 mM). The IC50 generated in the binding assay was corrected for tracer concentration and affinity of the tracer to derive at the affinity (Ki) of the test compounds.

rat P2X7 [3] = biological target: T2, rat P2X7 (Rattus norvegicus (Rat), UniProt Q64663); assay: Radioligand binding, rat P2X7-1321N1 cell membranes, tritiated A-804598; settings: rat P2X7-1321N1 membranes, tracer tritiated A-804598, 1 hour 4° C.
T2 sequence (Q64663 whole entry): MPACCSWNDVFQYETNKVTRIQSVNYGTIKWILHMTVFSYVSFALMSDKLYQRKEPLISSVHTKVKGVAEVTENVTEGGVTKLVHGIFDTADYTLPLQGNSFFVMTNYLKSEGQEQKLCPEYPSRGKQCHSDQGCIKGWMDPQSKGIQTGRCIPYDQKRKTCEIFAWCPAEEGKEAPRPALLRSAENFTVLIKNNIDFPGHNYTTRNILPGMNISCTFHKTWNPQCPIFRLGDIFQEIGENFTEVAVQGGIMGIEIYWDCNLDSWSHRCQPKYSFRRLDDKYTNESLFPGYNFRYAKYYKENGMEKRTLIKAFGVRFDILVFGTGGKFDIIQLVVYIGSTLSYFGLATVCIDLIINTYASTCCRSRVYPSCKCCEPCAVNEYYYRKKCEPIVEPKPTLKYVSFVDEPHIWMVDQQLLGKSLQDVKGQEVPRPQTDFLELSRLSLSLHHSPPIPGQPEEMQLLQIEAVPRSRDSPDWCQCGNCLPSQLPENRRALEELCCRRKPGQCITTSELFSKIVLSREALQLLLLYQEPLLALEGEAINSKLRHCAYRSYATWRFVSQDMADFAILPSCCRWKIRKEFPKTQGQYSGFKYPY
Method: as §1, §3

rat P2X7 [4] = biological target: T2, rat P2X7; assay: Ca2+ flux (FLIPR) in 1321N1 cells expressing recombinant rat P2X7 channel; assay type: cell-based; settings: rat P2X7, 250 μM BzATP
Method: as §1, §2

T1 sequence (Q99572 whole entry): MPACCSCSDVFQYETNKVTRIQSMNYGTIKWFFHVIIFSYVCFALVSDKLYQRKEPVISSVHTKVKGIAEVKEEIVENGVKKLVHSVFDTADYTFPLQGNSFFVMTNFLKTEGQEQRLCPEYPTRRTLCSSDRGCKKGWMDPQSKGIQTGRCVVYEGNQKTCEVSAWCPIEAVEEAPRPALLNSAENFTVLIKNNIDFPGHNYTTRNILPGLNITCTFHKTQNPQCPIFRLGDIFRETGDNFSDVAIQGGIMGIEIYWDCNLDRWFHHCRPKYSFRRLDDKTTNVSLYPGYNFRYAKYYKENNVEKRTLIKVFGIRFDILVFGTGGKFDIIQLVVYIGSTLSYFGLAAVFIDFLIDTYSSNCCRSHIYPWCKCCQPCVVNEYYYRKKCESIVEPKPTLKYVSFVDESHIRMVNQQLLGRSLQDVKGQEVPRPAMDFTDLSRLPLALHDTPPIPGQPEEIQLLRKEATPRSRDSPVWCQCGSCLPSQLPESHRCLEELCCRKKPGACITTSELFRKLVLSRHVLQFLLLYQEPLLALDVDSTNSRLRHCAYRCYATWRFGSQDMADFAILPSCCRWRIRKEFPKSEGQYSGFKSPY

Compound	IC50 (human P2X7 [1])	Ki (human P2X7 [2])	Ki (rat P2X7 [3])	IC50 (rat P2X7 [4])
O=C(c1cccc(C(F)(F)F)c1Cl)N1[C@H]2CC[C@@H]1c1nnc(-c3cscn3)n1C2 [Example 49, (6S,9R)-10-{[2-Chloro-3-(trifluoromethyl)phenyl]carbonyl}-3-(1,3-thiazol-4-yl)-6,7,8,9-tetrahydro-5H-6,9-epimino[1,2,4]triazolo[4,3-a]azepine]	5 nM	20 nM	4 nM	13.5 nM
O=C(c1cccc(C(F)(F)F)c1Cl)N1[C@H]2CC[C@@H]1c1nnc(-c3cccnc3)n1C2 [Example 48, (6S,9R)-10-{[2-Chloro-3-(trifluoromethyl)phenyl]carbonyl}-3-pyridin-3-yl-6,7,8,9-tetrahydro-5H-6,9-epimino[1,2,4]triazolo[4,3-a]azepine]	13.2 nM	39.8 nM		
O=C(c1cccc(C(F)(F)F)c1Cl)N1[C@H]2CC[C@@H]1c1nnc(-c3cncs3)n1C2 [Example 57, (6S,9R)-10-{[2-Chloro-3-(trifluoromethyl)phenyl]carbonyl}-3-(1,3-thiazol-5-yl)-6,7,8,9-tetrahydro-5H-6,9-epimino[1,2,4]triazolo[4,3-a]azepine]	97.7 nM	35.5 nM		> 10000 nM
O=C(c1cccc(C(F)(F)F)c1Cl)N1[C@H]2CC[C@@H]1c1nnc(-c3ccccn3)n1C2 [Example 41, (6S,9R)-10-{[2-Chloro-3-(trifluoromethyl)phenyl]carbonyl}-3-pyridin-2-yl-6,7,8,9-tetrahydro-5H-6,9-epimino[1,2,4]triazolo[4,3-a]azepine]	6.3 nM	12.6 nM	7.9 nM	1580 nM
Cc1c(C(=O)N2[C@H]3CC[C@@H]2c2nnc(-c4cscn4)n2C3)cccc1C(F)(F)F [Example 53, (6S,9R)-10-{[2-Methyl-3-(trifluoromethyl)phenyl]carbonyl}-3-(1,3-thiazol-4-yl)-6,7,8,9-tetrahydro-5H-6,9-epimino[1,2,4]triazolo[4,3-a]azepine]	3.1 nM	12.6 nM	7.9 nM	3860 nM
O=C(c1ccc(F)c(C(F)(F)F)c1Cl)N1[C@H]2CC[C@@H]1c1nnc(-c3cscn3)n1C2 [Example 52, (6S,9R)-10-{[2-Chloro-4-fluoro-3-(trifluoromethyl)phenyl]carbonyl}-3-(1,3-thiazol-4-yl)-6,7,8,9-tetrahydro-5H-6,9-epimino[1,2,4]triazolo[4,3-a]azepine]	10.2 nM	31.6 nM	6.3 nM	131 nM
Cc1ncsc1-c1nnc2n1C[C@@H]1CC[C@H]2N1C(=O)c1cccc(C(F)(F)F)c1Cl [Example 59, (6S,9R)-10-{[2-Chloro-3-(trifluoromethyl)phenyl]carbonyl}-3-(4-methyl-1,3-thiazol-5-yl)-6,7,8,9-tetrahydro-5H-6,9-epimino[1,2,4]triazolo[4,3-a]azepine]	100 nM	126 nM		> 10000 nM
O=C(c1cccc(C(F)(F)F)c1Cl)N1[C@H]2CC[C@@H]1c1nnc(-c3ccc(F)cc3)n1C2 [Example 40, (6S,9R)-10-{[2-Chloro-3-(trifluoromethyl)phenyl]carbonyl}-3-(4-fluorophenyl)-6,7,8,9-tetrahydro-5H-6,9-epimino[1,2,4]triazolo[4,3-a]azepine]	12.6 nM	21.9 nM	35.5 nM	10000 nM
O=C(c1cccc(C(F)(F)F)c1Cl)N1[C@H]2CC[C@@H]1c1nnc(-c3ccc[nH]3)n1C2 [Example 62, (6S,9R)-10-{[2-Chloro-3-(trifluoromethyl)phenyl]carbonyl}-3-(1H-pyrrol-2-yl)-6,7,8,9-tetrahydro-5H-6,9-epimino[1,2,4]triazolo[4,3-a]azepine]	19.6 nM	6.3 nM		> 10000 nM
O=C(c1cccc(C(F)(F)F)c1Cl)N1[C@H]2CC[C@@H]1c1nnc(-c3ccc(Cl)s3)n1C2 [Example 55, (6S,9R)-3-(5-Chlorothiophen-2-yl)-10-{[2-chloro-3-(trifluoromethyl)phenyl]carbonyl}-6,7,8,9-tetrahydro-5H-6,9-epimino[1,2,4]triazolo[4,3-a]azepine]	17.1 nM	25.1 nM		
Cc1cc(-c2nnc3n2C[C@@H]2CC[C@H]3N2C(=O)c2cccc(C(F)(F)F)c2Cl)[nH]n1 [Example 51, (6S,9R)-10-{[2-Chloro-3-(trifluoromethyl)phenyl]carbonyl}-3-(3-methyl-1H-pyrazol-5-yl)-6,7,8,9-tetrahydro-5H-6,9-epimino[1,2,4]triazolo[4,3-a]azepine]	14.4 nM	39.8 nM	7.9 nM	4100 nM
O=C(c1ccc(F)c(Cl)c1Cl)N1[C@H]2CC[C@@H]1c1nnc(-c3cnccn3)n1C2 [Example 47, (6S,9R)-10-[(2,3-Dichloro-4-fluorophenyl)carbonyl]-3-pyrazin-2-yl-6,7,8,9-tetrahydro-5H-6,9-epimino[1,2,4]triazolo[4,3-a]azepine]	20.3 nM	10 nM		
O=C(c1cccc(C(F)(F)F)c1Cl)N1[C@H]2CC[C@@H]1c1nnc(-c3ccsc3)n1C2 [Example 58, (6S,9R)-10-{[2-Chloro-3-(trifluoromethyl)phenyl]carbonyl}-3-thiophen-3-yl-6,7,8,9-tetrahydro-5H-6,9-epimino[1,2,4]triazolo[4,3-a]azepine]	1.7 nM	10 nM		713 nM
O=C(c1cccc(C(F)(F)F)c1Cl)N1[C@H]2CC[C@@H]1c1nnc(-c3ncccn3)n1C2 [Example 46, (6S,9R)-10-{[2-Chloro-3-(trifluoromethyl)phenyl]carbonyl}-3-pyrimidin-2-yl-6,7,8,9-tetrahydro-5H-6,9-epimino[1,2,4]triazolo[4,3-a]azepine]	15.2 nM	15.8 nM	6.3 nM	253 nM
O=C(c1ccc(Cl)c(F)c1Cl)N1[C@H]2CC[C@@H]1c1nnc(-c3cscn3)n1C2 [Example 54, (6S,9R)-10-[(2,4-Dichloro-3-fluorophenyl)carbonyl]-3-(1,3-thiazol-4-yl)-6,7,8,9-tetrahydro-5H-6,9-epimino[1,2,4]triazolo[4,3-a]azepine]	6.1 nM	25.1 nM	7.9 nM	8910 nM
Cc1nc(-c2nnc3n2C[C@@H]2CC[C@H]3N2C(=O)c2cccc(C(F)(F)F)c2Cl)cs1 [Example 56, (6S,9R)-10-{[2-Chloro-3-(trifluoromethyl)phenyl]carbonyl}-3-(2-methyl-1,3-thiazol-4-yl)-6,7,8,9-tetrahydro-5H-6,9-epimino[1,2,4]triazolo[4,3-a]azepine]	30.8 nM			
O=C(c1cccc(C(F)(F)F)c1Cl)N1[C@H]2CC[C@@H]1c1nnc(-c3cnccn3)n1C2 [Example 42, (6S,9R)-10-{[2-Chloro-3-(trifluoromethyl)phenyl]carbonyl}-3-pyrazin-2-yl-6,7,8,9-tetrahydro-5H-6,9-epimino[1,2,4]triazolo[4,3-a]azepine]	20 nM	12.6 nM	7.9 nM	251 nM
O=C(c1cccc(C(F)(F)F)c1Cl)N1[C@H]2CC[C@@H]1c1nnc(-c3cccs3)n1C2 [Example 61, (6S,9R)-10-{[2-Chloro-3-(trifluoromethyl)phenyl]carbonyl}-3-thiophen-2-yl-6,7,8,9-tetrahydro-5H-6,9-epimino[1,2,4]triazolo[4,3-a]azepine]	2.6 nM	4 nM		10000 nM
O=C(c1ccnc(C(F)(F)F)c1Cl)N1[C@H]2CC[C@@H]1c1nnc(-c3ccc(Cl)s3)n1C2 [Example 60, (6S,9R)-3-(5-Chlorothiophen-2-yl)-10-{[3-chloro-2-(trifluoromethyl)pyridin-4-yl]carbonyl}-6,7,8,9-tetrahydro-5H-6,9-epimino[1,2,4]triazolo[4,3-a]azepine]	14.9 nM	21.9 nM		2340 nM
O=C(c1cccc(C(F)(F)F)c1Cl)N1[C@H]2CC[C@@H]1c1nnc(-c3ccc(F)cn3)n1C2 [Example 45, (6S,9R)-10-{[2-Chloro-3-(trifluoromethyl)phenyl]carbonyl}-3-(5-fluoropyridin-2-yl)-6,7,8,9-tetrahydro-5H-6,9-epimino[1,2,4]triazolo[4,3-a]azepine]	13.1 nM	12.6 nM		
